Reference: ChEMBL document CHEMBL4665629, “An optimised series of substituted N-phenylpyrrolamides as DNA gyrase B inhibitors” (Eur J Med Chem, 2019)
Converted amounts (≈) assume the structure as drawn.

Columns and labels:
Escherichia coli [1] = experiment: Antibacterial activity against outer membrane impaired Escherichia coli JD17464 harboring lpxC mutant assessed as bacterial growth inhibition at 50 uM incubated for 24 hrs by CLSI protocol based broth microdilution assay relative to control; assay type: functional
Pseudomonas aeruginosa [2] = experiment: Antibacterial activity against Pseudomonas aeruginosa ATCC 27853 assessed as minimum inhibitory concentration required for >=90% inhibition of bacterial growth in presence of phenylalanine-arginine beta-naphthylamide by CLSI protocol based broth microdilution assay; assay type: functional
Salmonella enterica = experiment: Antibacterial activity against Salmonella enterica LT2 assessed as minimum inhibitory concentration required for >=90% inhibition of bacterial growth in presence of phenylalanine-arginine beta-naphthylamide by CLSI protocol based broth microdilution assay; assay type: functional
Escherichia coli [3] = experiment: Antibacterial activity against Escherichia coli MG1655 harboring […]/D87N and ParC S80I mutants assessed as minimum inhibitory concentration required for >=90% inhibition of bacterial growth in presence of 50 ug/ml phenylalanine-arginine beta-naphthylamide; assay type: functional
Streptococcus pyogenes = experiment: Antibacterial activity against Streptococcus pyogenes ATCC 19653 assessed as minimum inhibitory concentration required for >=90% inhibition of bacterial growth by CLSI protocol based broth microdilution assay; assay type: functional
Staphylococcus aureus [4] = experiment: Antibacterial activity against methicillin-resistant Staphylococcus aureus ATCC 43300 assessed as minimum inhibitory concentration required for >=90% inhibition of bacterial growth in presence of 50% inactivated human serum by CLSI protocol based broth microdilution assay; assay type: functional
Klebsiella pneumoniae [5] = experiment: Antibacterial activity against wild type Klebsiella pneumoniae ATCC 10031 harboring GyrA S83F/D87G mutant assessed as minimum inhibitory concentration required for >=90% inhibition of bacterial growth in presence of 10 ug/ml phenylalanine-arginine beta-naphthamide; assay type: functional
Escherichia coli [6] = experiment: Antibacterial activity against wild type Escherichia coli MG1655 assessed as minimum inhibitory concentration required for >=90% inhibition of bacterial growth in presence of 50 ug/ml phenylalanine-arginine beta-naphthylamide; assay type: functional
Klebsiella pneumoniae [7] = experiment: Antibacterial activity against Klebsiella pneumoniae ATCC 700603 assessed as bacterial growth inhibition at 50 uM incubated for 24 hrs by CLSI protocol based broth microdilution assay relative to control; assay type: functional
Pseudomonas aeruginosa [8] = experiment: Antibacterial activity against Pseudomonas aeruginosa ATCC 27853 assessed as bacterial growth inhibition at 50 uM incubated for 24 hrs by CLSI protocol based broth microdilution assay relative to control; assay type: functional
Enterococcus faecalis = experiment: Antibacterial activity against Enterococcus faecalis ATCC 29212 assessed as minimum inhibitory concentration required for >=90% inhibition of bacterial growth by CLSI protocol based broth microdilution assay; assay type: functional
Escherichia coli [9] = experiment: Antibacterial activity against Escherichia coli MG1655 harboring GyrB R136C mutant assessed as minimum inhibitory concentration required for >=90% inhibition of bacterial growth in presence of 50 ug/ml phenylalanine-arginine beta-naphthylamide; assay type: functional
[10] = Inhibition of Escherichia coli DNA topoisomerase 4 assessed as residual activity at 1 uM using biotinylated oligonucleotide as substrate incubated for 30 mins in presence of ATP by fluorescence-based microplate reader assay relative to control
Staphylococcus aureus [11] = experiment: Antibacterial activity against Staphylococcus aureus ATCC 29213 assessed as minimum inhibitory concentration required for >=90% inhibition of bacterial growth by CLSI protocol based broth microdilution assay; assay type: functional

Question: For `CCn1cc(C(=O)O)c(=O)c2ccc(NC(=O)c3[nH]c(C)c(Cl)c3Cl)cc21`, which inhibition at 50 µM (Escherichia coli [1]) is on record?
Answer: 11%

Question: And the MIC (Pseudomonas aeruginosa [2])?
Answer: > 32 µM

Question: What about the MIC (Salmonella enterica) of the same molecule?
Answer: > 32 µM

Question: And the MIC (Escherichia coli [3])?
Answer: 2.5 µM

Question: What about the MIC (Streptococcus pyogenes) of the same molecule?
Answer: 0.72 µM (≈ 0.294 µg/mL)

Question: And the MIC (Staphylococcus aureus [4])?
Answer: 32 µM

Question: And the MIC (Klebsiella pneumoniae [5])?
Answer: 2.5 µM

Question: What about the MIC (Escherichia coli [6]) of the same molecule?
Answer: 2.5 µM

Question: What about the inhibition at 50 µM (Klebsiella pneumoniae [7]) of the same molecule?
Answer: 7%

Question: And the inhibition at 50 µM (Pseudomonas aeruginosa [8])?
Answer: -5%

Question: What about the MIC (Enterococcus faecalis) of the same molecule?
Answer: 1.56 µM (≈ 0.637 µg/mL)

Question: And the MIC (Escherichia coli [9])?
Answer: 2.5 µM

Question: What about the Activity [10] of the same molecule?
Answer: 92%

Question: And the MIC (Staphylococcus aureus [11])?
Answer: 0.78 µM (≈ 0.318 µg/mL)
